According to PMC10376064, “ABC Transporter C1 Prevents Dimethyl Fumarate from Targeting Alzheimer’s Disease” (Biology, 2023):

Biological target: T1, ABCC1 (Homo sapiens, UniProt P33527)
T1 construct: membrane preparation of ABCC1-expressing H69AR cells
Assay: vanadate-sensitive ATPase stimulation in H69AR membranes; daunorubicin and rhodamine […] transport inhibition in H69AR cells
Assay type: cell-based

T1 sequence (P33527 whole entry): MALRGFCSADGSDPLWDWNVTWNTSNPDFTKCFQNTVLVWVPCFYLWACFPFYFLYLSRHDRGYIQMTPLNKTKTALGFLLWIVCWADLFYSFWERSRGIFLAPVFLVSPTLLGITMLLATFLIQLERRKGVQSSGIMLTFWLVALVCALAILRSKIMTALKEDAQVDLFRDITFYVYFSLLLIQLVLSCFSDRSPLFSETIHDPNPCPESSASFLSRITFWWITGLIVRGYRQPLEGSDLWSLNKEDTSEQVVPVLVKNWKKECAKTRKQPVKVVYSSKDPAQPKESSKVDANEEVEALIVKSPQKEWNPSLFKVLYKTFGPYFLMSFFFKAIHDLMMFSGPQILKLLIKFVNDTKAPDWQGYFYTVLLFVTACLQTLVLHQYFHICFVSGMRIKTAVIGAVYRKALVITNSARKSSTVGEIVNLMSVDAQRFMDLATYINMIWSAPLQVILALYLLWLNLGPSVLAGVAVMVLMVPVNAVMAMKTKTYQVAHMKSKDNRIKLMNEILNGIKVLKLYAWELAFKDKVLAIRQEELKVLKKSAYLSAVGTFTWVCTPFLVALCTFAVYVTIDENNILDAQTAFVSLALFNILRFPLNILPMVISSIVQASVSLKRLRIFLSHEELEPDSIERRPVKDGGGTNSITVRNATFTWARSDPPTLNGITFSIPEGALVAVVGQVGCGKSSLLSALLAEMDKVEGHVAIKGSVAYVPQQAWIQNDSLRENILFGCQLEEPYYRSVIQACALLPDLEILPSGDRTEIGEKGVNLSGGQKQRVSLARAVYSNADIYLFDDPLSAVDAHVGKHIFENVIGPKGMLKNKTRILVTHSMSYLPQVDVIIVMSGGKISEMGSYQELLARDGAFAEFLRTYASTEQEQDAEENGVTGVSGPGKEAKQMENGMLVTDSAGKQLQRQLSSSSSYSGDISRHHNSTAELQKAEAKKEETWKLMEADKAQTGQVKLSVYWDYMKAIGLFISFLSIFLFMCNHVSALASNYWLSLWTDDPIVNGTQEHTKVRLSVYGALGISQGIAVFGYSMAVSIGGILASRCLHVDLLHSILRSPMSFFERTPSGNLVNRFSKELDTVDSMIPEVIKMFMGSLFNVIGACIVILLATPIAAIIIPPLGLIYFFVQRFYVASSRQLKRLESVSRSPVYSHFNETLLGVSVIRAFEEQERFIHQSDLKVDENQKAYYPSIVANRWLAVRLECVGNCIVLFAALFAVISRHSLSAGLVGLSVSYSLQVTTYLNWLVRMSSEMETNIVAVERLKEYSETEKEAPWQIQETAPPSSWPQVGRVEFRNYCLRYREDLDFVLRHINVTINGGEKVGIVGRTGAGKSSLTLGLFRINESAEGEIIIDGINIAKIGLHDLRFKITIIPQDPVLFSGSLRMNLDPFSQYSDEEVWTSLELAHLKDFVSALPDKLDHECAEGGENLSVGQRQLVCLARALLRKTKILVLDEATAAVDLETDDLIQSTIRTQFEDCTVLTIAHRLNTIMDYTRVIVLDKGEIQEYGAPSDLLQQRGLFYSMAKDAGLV

- vanadate-sensitive ATPase stimulation in H69AR membranes; daunorubicin and rhoda: ~ 200 µM
SMILES: COC(=O)CC(SC[C@H](NC(=O)CC[C@H](N)C(=O)O)C(=O)NCC(=O)O)C(=O)OC (stereo partly shown) [compound 9, DMS-SG]
